This is an account of results in ChEMBL document CHEMBL3351915 (Bioorg Med Chem Lett, 2015).

For data set [1], the target named is T1, MDR1 (P-gp, ABCB1) (Homo sapiens, UniProt P08183). Briefly: Inhibition of human recombinant MDR1 in cell membrane fraction preincubated for 5 mins at 0.01 uM measured after 40 mins by Pgp-Glo luciferase assay. In kind it is cell-based.
Data set [2] has as its target T1, MDR1 (P-gp, ABCB1). Briefly: Inhibition of human recombinant MDR1 in cell membrane fraction preincubated for 5 mins at 0.1 uM measured after 40 mins by Pgp-Glo luciferase assay. In kind it is cell-based.
In data set [3] the target is T1, MDR1 (P-gp, ABCB1). Nature of the data set: Inhibition of human recombinant MDR1 in cell membrane fraction preincubated for 5 mins at 1 uM measured after 40 mins by Pgp-Glo luciferase assay. It is filed as cell-based.
Data set [4] addresses T1, MDR1 (P-gp, ABCB1). Nature of the data set: Inhibition of human recombinant MDR1 in cell membrane fraction preincubated for 5 mins at 10 uM measured after 40 mins by Pgp-Glo luciferase assay. It is filed as cell-based.
The target of data set [5] is T1, MDR1 (P-gp, ABCB1). Briefly: Inhibition of human recombinant MDR1 in cell membrane fraction preincubated for 5 mins at 100 uM measured after 40 mins by Pgp-Glo luciferase assay. In kind it is cell-based.
For data set [6], the target named is ATP-dependent translocase ABCB1 (Homo sapiens, UniProt P08183). Briefly: Inhibition of human recombinant MDR1 in cell membrane fraction preincubated for 5 mins measured after 40 mins by Pgp-Glo luciferase assay. It is filed as cell-based.
The test system of a further data set is Plasma. Briefly: Total steady state plasma concentration in Sprague-Dawley rat at 5 mg/kg, po. In kind it is ADME, organism-based. The following applies: in vivo. Also on record: dose 5 mg/kg, route oral.
Data set [7] can be described thus: Fraction unbound in Sprague-Dawley rat at 5 mg/kg, po. Conditions: in vivo.
Data set [8] can be described thus: Absolute bioavailability in dog. Conditions: in vivo. In kind it is ADME, organism-based, Canis lupus familiaris.
Data set [9] in a line: Oral bioavailability in human. The following applies: in vivo.
In data set [10] the target is T2, CYP3A4 (Homo sapiens, UniProt P08684). Nature of the data set: Inhibition of human recombinant CYP3A4 expressed in insect cell microsomes preincubated for 10 mins at 0.1 uM by fluorescence assay. The following applies: recombinant enzyme.
The target in data set [11] is T2, CYP3A4. Nature of the data set: Inhibition of human recombinant CYP3A4 expressed in insect cell microsomes preincubated for 10 mins at 1 uM by fluorescence assay. Conditions: recombinant enzyme.
For data set [12], the target named is T2, CYP3A4. Nature of the data set: Inhibition of human recombinant CYP3A4 expressed in insect cell microsomes preincubated for 10 mins at 10 uM by fluorescence assay. The following applies: recombinant enzyme.

One may read the inhibition as how much of the control response was suppressed. Usually IC50 stands for the concentration that gives 50% inhibition. Usually fraction unbound stands for the share of the substance not bound to proteins or other matrix. What is called bioavailability is dose-corrected exposure relative to a reference, in per cent. Lower therefore signals little systemic uptake.

T2 sequence (P08684 whole entry): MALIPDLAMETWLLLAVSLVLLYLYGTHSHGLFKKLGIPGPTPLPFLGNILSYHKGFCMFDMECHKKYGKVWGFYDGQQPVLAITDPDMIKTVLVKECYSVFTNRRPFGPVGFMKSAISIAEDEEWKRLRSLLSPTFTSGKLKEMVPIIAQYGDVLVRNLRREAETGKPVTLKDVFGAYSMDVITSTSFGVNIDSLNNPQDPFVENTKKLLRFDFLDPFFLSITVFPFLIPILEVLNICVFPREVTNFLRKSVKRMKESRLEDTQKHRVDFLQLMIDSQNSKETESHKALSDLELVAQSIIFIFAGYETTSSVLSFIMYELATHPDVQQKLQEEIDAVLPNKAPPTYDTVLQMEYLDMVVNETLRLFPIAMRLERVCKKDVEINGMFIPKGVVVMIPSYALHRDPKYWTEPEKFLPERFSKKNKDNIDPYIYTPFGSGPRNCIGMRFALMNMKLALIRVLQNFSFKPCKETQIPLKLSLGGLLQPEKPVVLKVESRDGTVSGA
T1 sequence (P08183 whole entry): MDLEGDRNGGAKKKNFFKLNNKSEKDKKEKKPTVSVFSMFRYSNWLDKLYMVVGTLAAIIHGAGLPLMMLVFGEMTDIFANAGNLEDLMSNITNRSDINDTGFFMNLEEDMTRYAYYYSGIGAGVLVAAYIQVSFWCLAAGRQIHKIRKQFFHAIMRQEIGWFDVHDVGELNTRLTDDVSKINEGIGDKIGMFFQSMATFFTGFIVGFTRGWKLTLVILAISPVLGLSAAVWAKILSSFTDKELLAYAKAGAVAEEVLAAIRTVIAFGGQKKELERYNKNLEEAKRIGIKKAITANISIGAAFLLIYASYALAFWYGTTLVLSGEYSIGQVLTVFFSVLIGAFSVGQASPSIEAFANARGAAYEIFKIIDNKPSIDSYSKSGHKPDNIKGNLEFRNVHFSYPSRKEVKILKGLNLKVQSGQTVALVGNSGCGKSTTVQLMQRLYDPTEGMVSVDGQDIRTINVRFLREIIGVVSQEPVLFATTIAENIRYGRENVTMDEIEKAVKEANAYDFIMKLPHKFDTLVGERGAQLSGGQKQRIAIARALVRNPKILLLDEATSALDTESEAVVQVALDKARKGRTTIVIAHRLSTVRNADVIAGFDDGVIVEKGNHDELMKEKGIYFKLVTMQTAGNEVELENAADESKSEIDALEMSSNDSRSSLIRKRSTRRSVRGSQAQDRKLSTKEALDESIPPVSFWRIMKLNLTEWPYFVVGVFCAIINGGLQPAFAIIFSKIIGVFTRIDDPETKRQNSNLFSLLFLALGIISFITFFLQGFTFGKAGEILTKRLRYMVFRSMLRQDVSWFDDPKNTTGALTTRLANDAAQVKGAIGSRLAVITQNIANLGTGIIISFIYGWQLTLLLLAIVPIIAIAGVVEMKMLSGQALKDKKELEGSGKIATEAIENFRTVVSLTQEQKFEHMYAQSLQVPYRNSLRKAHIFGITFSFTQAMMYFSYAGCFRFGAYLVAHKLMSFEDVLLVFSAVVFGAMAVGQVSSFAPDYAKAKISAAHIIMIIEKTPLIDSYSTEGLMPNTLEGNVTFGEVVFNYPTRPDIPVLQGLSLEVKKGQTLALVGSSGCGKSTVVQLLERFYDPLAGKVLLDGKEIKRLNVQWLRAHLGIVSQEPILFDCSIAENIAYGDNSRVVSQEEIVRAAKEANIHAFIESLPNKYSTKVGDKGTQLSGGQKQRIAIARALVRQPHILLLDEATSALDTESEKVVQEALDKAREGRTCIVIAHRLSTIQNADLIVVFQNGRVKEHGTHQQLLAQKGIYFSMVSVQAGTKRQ
Sequence of ATP-dependent translocase ABCB1 (P08183 whole entry): as above

Take `COc1cc2c(cc1OC)C(=O)C(CC1CCN(Cc3ccccc3)CC1)C2` (stereo not drawn) [DONEPEZIL]: the inhibition at 40 min, 0.01 µM on MDR1 (P-gp, ABCB1) [1] was less than 15%. Also, at MDR1 (P-gp, ABCB1) [2], the inhibition at 40 min, 0.1 µM is less than 15%. In addition, the inhibition at 40 min, 1 µM at MDR1 (P-gp, ABCB1) [3] came to 17.8%. For the same compound, on MDR1 (P-gp, ABCB1) [4], the inhibition at 40 min, 10 µM is 23.5%. Also, the inhibition at 40 min, 100 µM on MDR1 (P-gp, ABCB1) [5] was found to be 76%. For the same compound, the half-inhibitory concentration (IC50) in data set [6] was found to be 34.9 µM. The same compound came in with a concentration in the data set with Plasma of 60 nM. The compound also showed a fraction unbound in data set [7] of 0.04. In addition, the figures for the bioavailability in data set [8] and in [9] were 50% and 92%, respectively.
As for `CC(=O)N1CCN(c2ccc(OCC3COC(Cn4ccnc4)(c4ccc(Cl)cc4Cl)O3)cc2)CC1` (stereo not drawn) [KETOCONAZOLE], the inhibition at 0.1 µM on CYP3A4 [10] came to 33.9%. Besides, on CYP3A4 [11], the inhibition at 1 µM was 87.2%. Also, the inhibition at 10 µM at CYP3A4 [12] was 92.3%.
